The Deep4Chem optical property database
Values belong to the compound of their own block, whether it stands above or below them.

Assay: solvent given as SMILES

Structure (SMILES): CCN1/C(=C\c2c(-c3ccc(N(C)C)cc3)c(=O)c2=O)C=Cc2ccccc21
absorption maximum (in C1CCCCC1): 359 nm
absorption maximum (in Cc1ccccc1): 362 nm
absorption maximum (in ClCCl): 509 nm

Structure (SMILES): Cc1cc(C)c(B(c2c(C)cc(C)cc2C)c2c(C)cc(-n3c4ccc(N(c5ccccc5)c5ccccc5)cc4c4cc(N(c5ccccc5)c5ccccc5)ccc43)cc2C)c(C)c1
absorption maximum (in Cc1ccccc1): 387 nm

absorption maximum (in ClC(Cl)Cl): 484 nm
Structure (SMILES): N#Cc1nc(N(Cc2ccc(I)cc2)Cc2ccc(I)cc2)c(C#N)nc1N(Cc1ccc(I)cc1)Cc1ccc(I)cc1

Structure (SMILES): COCCC1=Cc2nc1ccc1[nH]c(cc1CCOC)c1nc(ccc3[nH]c2cc3CCO)C(CCOC)=C1
absorption maximum (in Cc1ccccc1): 637 nm

absorption maximum (in ClCCl): 650 nm
Structure (SMILES): CC(C)(C)c1ccc(Oc2cc3c4c(cc(Oc5ccc(C(C)(C)C)cc5)c5c6c(Oc7ccc(C(C)(C)C)cc7)cc7c8c(cc(Oc9ccc(C(C)(C)C)cc9)c(c2c45)c86)C(=O)C2=C7O[B-](F)(F)[n+]4c2ccc2ccccc24)C2=C(C3=O)c3ccc4ccccc4[n+]3[B-](F)(F)O2)cc1

absorption maximum (in ClCCl): 395 nm
Structure (SMILES): CCCCCCn1c(=O)c2c3oc4ccccc4oc3c3c(=O)n(CCCCCC)c(=O)c3c2c1=O

absorption maximum (in CC#N): 340 nm
Structure (SMILES): COc1ccc(-n2nc(C#N)c(N3CCCCC3)n2)cc1

Structure (SMILES): c1ccc2c(c1)Sc1ccccc1N2c1ccc2c(c1)C1(CC1)c1cc(N3c4ccccc4Sc4ccccc43)ccc1-2
absorption maximum (in Cc1ccccc1): 307 nm

Structure (SMILES): CC(C)c1cc(C(C)C)c(-c2ccc(-n3c4ccccc4n4c5ccccc5nc34)nc2)c(C(C)C)c1
absorption maximum (in Cc1ccccc1): 345 nm

absorption maximum (in CCO): 376 nm
Structure (SMILES): O=Cc1ccc(-c2ccc(-c3nc4ccccc4s3)c(O)c2)s1

absorption maximum (in ClCCl): 400 nm
Structure (SMILES): Clc1ccccc1N1c2c(sc3ccccc23)Sc2sc3ccccc3c21

absorption maximum (in ClCCl): 402 nm
Structure (SMILES): C(=C\c1ccnc(/C=C/c2ccc(N(c3ccccc3)c3ccccc3)cc2)n1)/c1ccc(N(c2ccccc2)c2ccccc2)cc1

absorption maximum (in C1CCOC1): 357 nm
Structure (SMILES): C1=Cc2ccccc2C(=Cc2ccc(-c3ccc(C=C4c5ccccc5-c5ccccc54)cc3)cc2)c2ccccc21

absorption maximum (in C1CCOC1): 513 nm
Structure (SMILES): CC(C)(C)[Si](C)(C)C#CC1=CC2=c3cc(C#C[Si](C)(C)C(C)(C)C)c4nc(C(F)(F)C(F)(F)C(F)(F)F)nc5c(C#C[Si](C)(C)C(C)(C)C)cc(c3c54)C3=CC(C#C[Si](C)(C)C(C)(C)C)=C4N=C(C(F)(F)C(F)(F)C(F)(F)F)N=C1C4C32 (stereo not drawn)

absorption maximum (in C1CCOC1): 385 nm
Structure (SMILES): c1cc2c3c(c1)-c1cccc4ccn(c14)B3n1ccc3cccc-2c31

absorption maximum (in ClC(Cl)Cl): 545 nm
Structure (SMILES): COc1ccc(N(c2ccc(OC)cc2)c2ccc(-c3ccc(-c4ccc(-c5ccc(-c6ccc(N(c7ccc(OC)cc7)c7ccc(OC)cc7)cc6)s5)c5nsnc45)s3)cc2)cc1

Structure (SMILES): c1ccc(-c2ccc(-c3ccccc3)cc2)cc1
absorption maximum (in C1CCOC1): 281 nm
absorption maximum (in C1COCCO1): 276 nm
absorption maximum (in CCO): 280 nm

absorption maximum (in c1cc(-c2cccc(-n3c4ccccc4c4ccccc43)c2)cc(-n2c3ccccc3c3ccccc32)c1): 363.44 nm
Structure (SMILES): Cc1cc(-c2nc(-c3ccccc3)nc(-c3ccccc3)n2)c(C)cc1-c1ccc2c(c1)C1(c3ccccc3-c3ccccc31)c1ccccc1N2c1ccccc1

Structure (SMILES): c1ccc(C2CCN3COc4c5ccccc5c5c6c7c(c2c3c46)C(c2ccccc2)CCN7CO5)cc1 (stereo not drawn)
absorption maximum (in C1CCCCC1): 403 nm
absorption maximum (in C1CCOC1): 405 nm
absorption maximum (in C1COCCO1): 405 nm
absorption maximum (in CC#N): 405 nm
absorption maximum (in CC(C)=O): 406 nm
absorption maximum (in CCOC(C)=O): 404 nm
absorption maximum (in CCOCC): 404 nm
absorption maximum (in CN(C)C=O): 407 nm
absorption maximum (in CO): 402 nm
absorption maximum (in CS(C)=O): 408 nm
absorption maximum (in Cc1ccccc1): 406 nm
absorption maximum (in ClC(Cl)Cl): 404 nm
absorption maximum (in ClCCl): 405 nm

Structure (SMILES): CCOC(=O)COc1ccc(/C=C/C2=C3c4ccccc4C(c4[nH]c(C)cc4C)=[N+]3[B-](F)(F)n3c(/C=C/c4ccc(OCC(=O)OCC)cc4)cc(C)c32)cc1
absorption maximum (in C1CCOC1): 676 nm
absorption maximum (in CC#N): 667 nm
absorption maximum (in CCCCCC): 674 nm
absorption maximum (in CO): 668 nm
absorption maximum (in Cc1ccccc1): 683 nm
absorption maximum (in ClCCl): 676 nm

absorption maximum (in CC#N): 269 nm
absorption maximum (in ClCCl): 268 nm
Structure (SMILES): Nc1nc2ccc(Br)cc2s1
